Reference: patent US20060189675A1, “Crystalline form of a drug” (priority 2004, published 2006)
≈ marks a conversion by molar mass, not a printed value.

Experiment: Solubility of Atrasentan Hydrochloride Crystalline Forms in 1,4-dioxane
Format: physicochemical
Conditions: 25° C., n=3
Protocol: The solubility (in mg/mL) of Atrasentan Hydrochloride Crystalline Forms 1, 2 and 3 in 1,4-dioxane at 25° C.

solubility in 1,4-dioxane [mg/mL] | SMILES
35.60 ± 1.82 (≈ 69.7 mM) | CCCCN(CCCC)C(=O)CN1C[C@H](c2ccc3c(c2)OCO3)[C@@H](C(=O)O)[C@@H]1c1ccc(OC)cc1 [Form 1, (2R,3R,4S)-(+)-2-(4-methoxyphenyl)-4-(1,3-benzodioxol-5-yl)-1-(N,N-di(n-butyl)aminocarbonylmethyl)pyrrolidine-3-carboxylic acid]
16.66 ± 0.22 (≈ 32.6 mM) | CCCCN(CCCC)C(=O)CN1C[C@H](c2ccc3c(c2)OCO3)[C@@H](C(=O)O)[C@@H]1c1ccc(OC)cc1 [Form 2, (2R,3R,4S)-(+)-2-(4-methoxyphenyl)-4-(1,3-benzodioxol-5-yl)-1-(N,N-di(n-butyl)aminocarbonylmethyl)pyrrolidine-3-carboxylic acid]
16.53 ± 0.22 (≈ 32.4 mM) | CCCCN(CCCC)C(=O)CN1C[C@H](c2ccc3c(c2)OCO3)[C@@H](C(=O)O)[C@@H]1c1ccc(OC)cc1 [Form 3, (2R,3R,4S)-(+)-2-(4-methoxyphenyl)-4-(1,3-benzodioxol-5-yl)-1-(N,N-di(n-butyl)aminocarbonylmethyl)pyrrolidine-3-carboxylic acid]
